This is an account of results in US20240252486A1, “ALGOSTATIC AGENTS FOR PREVENTING TRANSITION FROM ACUTE TO CHRONIC PAIN” (The Regents of the University of California, priority 2021, published 2024).

The test system of test [1] is formalin-injected mice. The test can be described thus: Formalin-induced chronic pain-like state (CPLS): persistent hypersensitivity to heat and mechanical stimuli. The test is classed as in vivo, mouse.
Test [2] deals with formalin-injected mice. In words: Elevated plus maze test (anxiety-like behavior) after formalin. In kind it is in vivo, mouse. The conditions noted are these: ARN19702 30 mg-kg^−1 IP once daily for 3 days starting 24 h after formalin; PFD7. On the procedure: Elevated plus maze test: We placed each mouse in the central platform of the maze, facing the open arm opposite to the experimenter, and behavior was recorded using the Debut video capture software (NCH Software, Canberra, Australia). A blinded observer measured the amount of time spent in the open and closed arms, as well as the number of open and closed arm entries. The open arms of the maze were illuminated at 150-170 lux and the closed arms at 40-50 lux.
Elevated plus maze test: We placed each mouse in the central platform of the maze, facing the open arm opposite to the experimenter, and behavior was recorded using the Debut video capture software (NCH Software, Canberra, Australia). A blinded observer measured the amount of time spent in the open and closed arms, as well as the number of open and closed arm entries. The open arms of the maze were illuminated at 150-170 lux and the closed arms at 40-50 lux. The anxiety index was calculated as follows: […]

Test [3] concerns formalin-injected mice. In words: 24-h novel object recognition test (long-term memory) after formalin. In kind it is in vivo, mouse. As to conditions: ARN19702 30 mg-kg^−1 IP once daily for 3 days starting 24 h after formalin; PFD14. On the procedure:
The test was conducted over 3 days.
The test was conducted over 3 days. […] The discriminatory index was calculated as follows: […]

The subject of test [4] is PEA levels in ipsilateral lumbar spinal cord (L4-L6). In words: PEA quantification in lumbar spinal cord (LC/MS-MS). The test is classed as in vivo, mouse. The conditions noted are these: post-formalin ARN19702 30 mg-kg^−1 IP on PFD2-4; 2 h after administration. On the procedure: Lipid extraction: Lumbar L4-L6 spinal cord fragments (˜15 mg each) were transferred into 2 ml Precellys® soft tissue tubes (Bertin Instruments, France) and diluted with ice-cold acetone (1 ml) containing [2H4]-PEA (50 μl, 100 nM) Samples were homogenized at 4° C., 6000 rpm, 15 s/cycle for 2 cycles with 20 s pause in between cycles. Supernatants were transferred into 8-ml glass vials and dried under nitrogen. Chloroform/methanol (2/1, vol, 3 ml) and water (1 ml) were added to the samples, which were then stirred vigorously and centrifuged at 830×g for 15 min at 4° C. The lower (organic) phases were collected and upper phases were extracted again with chloroform (2 ml) and combined with the previous extract. Extracts were dried under nitrogen, reconstituted in acetonitrile (0.1 ml), transferred to deactivated glass inserts and placed inside amber glass vials for liquid chromatography/tandem mass spectrometry (LC/MS-MS) analyses.
PEA quantification: PEA was fractionated using a 1260 series LC system (Agilent Technologies, Santa Clara, CA) coupled to a 6460C triple-quadrupole mass spectrometric detector (MSD; Agilent). […] The MSD was operated in the positive electrospray ionization mode, and analytes were quantified by multiple reaction monitoring. […]

Test [5] concerns spinal-cord transcription. The test can be described thus: RNA sequencing and metabolomic analysis of L4-L6 spinal cord. The test is classed as in vivo, mouse. The conditions noted are these: systemic ARN19702 administration on PFD2-3. The protocol:
RNA sequencing and bioinformatics analysis: We extracted total RNA with the RNeasy Mini Kit (Qiagen). Samples with RNA integrity number ≥8.5 were kept for library construction. cDNA synthesis, amplification, library construction, and sequencing were performed at Novogene (Bejing, China) using the Illumina NovaSeq platform with paired-end 150 bp (PE 150) sequencing strategy. Downstream analysis was performed using a combination of programs including STAR, HTseq, Cufflink and Novogene's wrapped scripts. Alignments were parsed using the STAR program and differential expressions were determined using DESeq2/edgeR. Gene Ontology (GO) and Kyoto Encyclopedia of Genes and Genomes (KEGG) enrichment were implemented using the ClusterProfiler.
Metabolomic analysis: Metabolomics analyses were performed at the West Coast Metabolomics Center of the University of California Davis, as described^55. Briefly, frozen lumbar spinal cord (L4-L6) fragments (˜5 mg) were homogenized in Eppendorf tubes (2 ml) for 2 min using metal spheres ([…] diameter) in a MM300 mill (Retsch, Germany). A mixture of isopropanol/acetonitrile/water (3/3/2, vol) was added to the grounded tissue (1 ml per 20 mg), stirred for 10 s and shaken at 4° C. for 5 min. […]

For test [6] the following is noted: as effectively as does ARN077; cited from earlier work.
For test [7], the system named is formalin-injected mice. The test can be described thus: Formalin test: acute nocifensive behavior. As to conditions: pretreatment; ARN16186 10 mg-kg^−1 IP, ARN19702 30 mg-kg^−1 IP; wild-type mice, 1% formalin.

For the compound `CCS(=O)(=O)c1ccccc1C(=O)N1CCN(c2nc3ccc(F)cc3s2)C[C@@H]1C` [ARN19702], the figures for the “protection from CPLS consolidation” value in test [1] (ARN19702 30 mg-kg^−1 IP given on PFD1 or PFD5 to PFD9), in test [1] (ARN19702 30 mg-kg^−1 IP given on PFD2) and in test [1] (ARN19702 30 mg-kg^−1 IP given once on PFD3 or PFD4) were “no such effect”, “partially effective” and “full protection”, respectively. Also, the “sex dependence of the protective effects (contralateral hyperalgesia in female mice)” value in test [1] (ARN19702 30 mg-kg^−1 IP once daily PFD1 to PFD3) was “not sex-dependent”. For the same compound, the CPLS consolidation result in test [1] (ARN19702 30 mg-kg^−1 IP once daily for 3 consecutive days starting 24 h after formalin, male mice) is “effectively halted”. For the same compound, in test [1] (ARN19702 30 mg-kg^−1 IP once daily for 3 days starting 24 h after formalin, male mice), the “evoked hypersensitivity (sensory responses)” value was “normalizing”. For the same compound, in test [1] (ARN19702 30 mg-kg^−1 IP, at all time points PFD1 to PFD9), the “pain behaviors (acute effect)” value was “temporarily attenuated”. The “transition to CPLS in PPAR-α-null mice” value in test [1] (ARN19702 30 mg-kg^−1 IP, Ppara^−/− mice, PFD14) is “unaffected”. Moreover, the “persistent hypersensitivity (CPLS) elicited by formalin” value in test [1] (post-injury intrathecal infusion, 30 ng, 5 μL, at PFD2 and PFD4, assessed PFD14) is listed as “stopped”. In addition, in test [1] (pretreatment of wild-type mice, ARN19702 30 mg-kg^−1 IP, ARN16186 10 mg-kg^−1 IP), the “NAAA-null phenotype (weakened nocifensive response, no inflammation or persistent hypersensitivity after formalin)” value is on record as “recapitulated”. Moreover, the “persistent contralateral hyperalgesia (PFD14)” value in test [1] (pretreatment, ARN16186 10 mg-kg^−1 IP, ARN19702 30 mg-kg^−1 IP, wild-type mice, 1% formalin) is “prevents”. Also, the anxiety-like behavior result in test [2] is “normalizing”. Besides, in test [3], the memory deficits result was “normalizing”. Further, the “PEA levels in ipsilateral lumbar spinal cord (L4-L6)” value in test [4] is “normalized”. Further, the “transcriptional and metabolic changes in L4-L6 spinal cord on the following day” value in test [5] is reported as “prevented the appearance”. Also, in test [6], the “nociceptive behavior evoked by formalin or CCI” value is given as “suppresses”. In test [7], the “nocifensive response to formalin” value was “prevents”.
